Tested on: blood vessel network of the cell structure (HUVEC/NHDF)
Assay: Blood vessel network formation in the cell structure co-cultured with PDOs (anti-CD31 immunostaining)
Assay type: cell-based, human
Settings: added factor of EGM2 added singly to DMEM and EBM2; FIGS. 9 and 10
Experimental: The pre-culture of the patient-derived PDOs and the preparation of the cell structure were performed by the same method as in Example 1. For the co-culture of the PDOs and the cell structure, a method for top surface culture of the cell structure using single-celled PDOs was adopted. In addition, regarding the sample for which the culture was continued, the co-culture of the PDOs and the cell structure was performed by the same method as in Example 1, except that the medium was replaced using each medium at a timing of once every three or four days. Fluorescence immunostaining, image capturing, and image analysis were performed by the same methods as in Example 1. Next, in order to identify the inhibitory factors among the added factors, media obtained by adding each of the added factors of EGM2 shown in Table 7 to D-MEM and EBM2, and media obtained by excluding each of the added factors shown in Table 7 from EGM2 were prepared, and vascular network evaluation was performed. The scale bars in FIGS. 9 and 10 indicate 500 μm. […] In FIG. 10, +means that the added factor is included, and −means that the added factor is excluded.

## C[C@]12CCC(=O)C=C1CC[C@@H]1[C@@H]2[C@@H](O)C[C@@]2(C)[C@H]1CC[C@]2(O)C(=O)CO [Hydrocortisone]
  formation of the blood vessel network: the formation of the blood vessel network was suppressed
